Experiments:
Assay type in all cases: in vivo
ducksalad [1] = test: Test Example 1: herbicidal effects in preemergence treatment under submerged conditions; conditions: dose 2.52 g/a
Procedure, shortened: (§1)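 Alluvial soil flooded to 4 cm depth; barnyardgrass, bulrush and ducksalad sown and 2.5-leaf rice seedlings transplanted. Same day, water-diluted emulsifiable concentrates applied to the water surface at set doses (g/a). Kept at 25–30 °C in greenhouse; effects scored 0–5 by mortality after three weeks.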

bulrush [2] = test: as above; conditions: dose 2.52 g/a
Procedure, shortened: as §1

barnyardgrass [3] = test: as above; conditions: dose 2.52 g/a
Procedure, shortened: as §1

wild oat [4] = test: Test Example 4: herbicidal effect in foliage treatment; conditions: dose 6.3 g/a, three weeks after application
Procedure, shortened: (§2)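 Weeds and crops sown in sterilized diluvial soil under ~1.5 cm cover and grown in greenhouse at 25 to 30° C. At 14 days, water-diluted emulsifiable concentrate sprayed onto foliage at set doses (g/a); herbicidal effect scored on a rating scale three weeks after application.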

giant foxtail [5] = test: as above; conditions: dose 6.3 g/a, three weeks after application
Procedure, shortened: as §2

common chickweed [6] = test: as above; conditions: dose 6.3 g/a, three weeks after application
Procedure, shortened: as §2

common lambsquater [7] = test: as above; conditions: dose 6.3 g/a, three weeks after application
Procedure, shortened: as §2

common ragweed [8] = test: as above; conditions: dose 6.3 g/a, three weeks after application
Procedure, shortened: as §2

large crabgrass [9] = test: as above; conditions: dose 6.3 g/a, three weeks after application
Procedure, shortened: as §2

barnyardgrass [10] = test: as above; conditions: dose 6.3 g/a, three weeks after application
Procedure, shortened: as §2

beadstraw = test: as above; conditions: dose 6.3 g/a, three weeks after application
Procedure, shortened: as §2

posumbu knotweed [11] = test: as above; conditions: dose 6.3 g/a, three weeks after application
Procedure, shortened: as §2

velvetleaf [12] = test: as above; conditions: dose 6.3 g/a, three weeks after application
Procedure, shortened: as §2

redroot pigweed [13] = test: as above; conditions: dose 6.3 g/a, three weeks after application
Procedure, shortened: as §2

water foxtail [14] = test: as above; conditions: dose 6.3 g/a, three weeks after application
Procedure, shortened: as §2

Italian ryegrass [15] = test: as above; conditions: dose 6.3 g/a, three weeks after application
Procedure, shortened: as §2

transplanted rice = test: Test Example 1: preemergence treatment under submerged conditions, effect on crop; conditions: dose 2.52 g/a
Procedure, shortened: as §1

ducksalad [16] = test: Test Example 2: herbicidal effects during the vegetation period under submerged conditions; conditions: treatment during the vegetation period under submerged conditions; dose 2.52 g/a
Procedure, shortened: (§3)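 Barnyardgrass, bulrush and ducksalad were co-sown in alluvial soil flooded to 4 cm and grown in a greenhouse at 25 to 30° C. At the 1- or 2-leaf stage, water-diluted emulsifiable concentrates went onto the water surface at set doses (g/a). Herbicidal effect was scored three weeks later on a graded scale.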

bulrush [17] = test: as above; conditions: treatment during the vegetation period under submerged conditions; dose 2.52 g/a
Procedure, shortened: as §3

barnyardgrass [18] = test: as above; conditions: treatment during the vegetation period under submerged conditions; dose 2.52 g/a
Procedure, shortened: as §3

wild oat [19] = test: Test Example 3: herbicidal effects in soil treatment; conditions: dose 6.3 g/a
Procedure, shortened: (§4)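 Seeds were sown in sterilized diluvial soil and covered with about 1.5 cm of soil. Compounds, formulated as emulsifiable concentrates and diluted with water, were sprayed evenly over the soil surface at set doses in g/a. Herbicidal effect was scored on a rating scale three weeks later.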

giant foxtail [20] = test: as above; conditions: dose 6.3 g/a
Procedure, shortened: as §4

common chickweed [21] = test: as above; conditions: dose 6.3 g/a
Procedure, shortened: as §4

common lambsquater [22] = test: as above; conditions: dose 6.3 g/a
Procedure, shortened: as §4

common ragweed [23] = test: as above; conditions: dose 6.3 g/a
Procedure, shortened: as §4

large crabgrass [24] = test: as above; conditions: dose 6.3 g/a
Procedure, shortened: as §4

barnyardgrass [25] = test: as above; conditions: dose 6.3 g/a
Procedure, shortened: as §4

posumbu knotweed [26] = test: as above; conditions: dose 6.3 g/a
Procedure, shortened: as §4

velvetleaf [27] = test: as above; conditions: dose 6.3 g/a
Procedure, shortened: as §4

redroot pigweed [28] = test: as above; conditions: dose 6.3 g/a
Procedure, shortened: as §4

water foxtail [29] = test: as above; conditions: dose 6.3 g/a
Procedure, shortened: as §4

Italian ryegrass [30] = test: as above; conditions: dose 6.3 g/a
Procedure, shortened: as §4

| Compound | C: ducksalad, herbicidal effect (evaluation scale 0-5) (ducksalad [1]) | B: bulrush, herbicidal effect (evaluation scale 0-5) (bulrush [2]) | A: barnyardgrass, herbicidal effect (evaluation scale 0-5) (barnyardgrass [3]) | F: wild oat, herbicidal effect (wild oat [4]) | E: giant foxtail, herbicidal effect (giant foxtail [5]) | N: common chickweed, herbicidal effect (common chickweed [6]) | L: common lambsquater, herbicidal effect (common lambsquater [7]) | J: common ragweed, herbicidal effect (common ragweed [8]) | D: large crabgrass, herbicidal effect (large crabgrass [9]) | A: barnyardgrass, herbicidal effect (barnyardgrass [10]) | O: beadstraw, herbicidal effect (beadstraw) | M: posumbu knotweed, herbicidal effect (posumbu knotweed [11]) | I: velvetleaf, herbicidal effect (velvetleaf [12]) | K: redroot pigweed, herbicidal effect (redroot pigweed [13]) | G: water foxtail, herbicidal effect (water foxtail [14]) | H: Italian ryegrass, herbicidal effect (Italian ryegrass [15]) | a: transplanted rice, effect on crop (evaluation scale 0-5) (transplanted rice) | C: ducksalad, herbicidal effect (evaluation scale 0-5) (ducksalad [16]) | B: bulrush, herbicidal effect (evaluation scale 0-5) (bulrush [17]) | A: barnyardgrass, herbicidal effect (evaluation scale 0-5) (barnyardgrass [18]) | further results |
| --- | --- | --- | --- | --- | --- | --- | --- | --- | --- | --- | --- | --- | --- | --- | --- | --- | --- | --- | --- | --- | --- |
| CCOC(=O)N(c1ccccc1CN1CCOC(C)C1=O)S(=O)(=O)C(F)(F)F (stereo not shown) [Compound I-5, 2-methyl-4-[2-(N-ethoxycarbonyl-N-trifluoromethanesulfonyl)aminobenzyl]-1,4-oxazinan-3-one] | 5 (mortality of 90% or above (nearly complete death)) | 5 (mortality of 90% or above (nearly complete death)) | 5 (mortality of 90% or above (nearly complete death)) | 2 (mortality of at least 20% and less than 40%) | 4 (mortality of at least 70% and less than 90%) | 4 (mortality of at least 70% and less than 90%) | 3 (mortality of at least 40% and less than 70%) | 4 (mortality of at least 70% and less than 90%) | 5 (mortality of 90% or above (nearly complete death)) | 5 (mortality of 90% or above (nearly complete death)) | 3 (mortality of at least 40% and less than 70%) | 4 (mortality of at least 70% and less than 90%) | 4 (mortality of at least 70% and less than 90%) | 3 (mortality of at least 40% and less than 70%) | 5 (mortality of 90% or above (nearly complete death)) | 4 (mortality of at least 70% and less than 90%) | 0 (mortality of less than 5% (almost ineffective)) | 5 (mortality of 90% or above (nearly complete death)) | 5 (mortality of 90% or above (nearly complete death)) | 5 (mortality of 90% or above (nearly complete death)) | F: wild oat, herbicidal effect (evaluation scale 0-5) (wild oat [19]): 3 (mortality of at least 40% and less than 70%); E: giant foxtail, herbicidal effect (evaluation scale 0-5) (giant foxtail [20]): 5 (mortality of 90% or above (nearly complete death)); N: common chickweed, herbicidal effect (evaluation scale 0-5) (common chickweed [21]): 5 (mortality of 90% or above (nearly complete death)); L: common lambsquater, herbicidal effect (evaluation scale 0-5) (common lambsquater [22]): 5 (mortality of 90% or above (nearly complete death)); J: common ragweed, herbicidal effect (evaluation scale 0-5) (common ragweed [23]): 4 (mortality of at least 70% and less than 90%); D: large crabgrass, herbicidal effect (evaluation scale 0-5) (large crabgrass [24]): 5 (mortality of 90% or above (nearly complete death)); A: barnyardgrass, herbicidal effect (evaluation scale 0-5) (barnyardgrass [25]): 5 (mortality of 90% or above (nearly complete death)); M: posumbu knotweed, herbicidal effect (evaluation scale 0-5) (posumbu knotweed [26]): 4 (mortality of at least 70% and less than 90%); I: velvetleaf, herbicidal effect (evaluation scale 0-5) (velvetleaf [27]): 4 (mortality of at least 70% and less than 90%); K: redroot pigweed, herbicidal effect (evaluation scale 0-5) (redroot pigweed [28]): 4 (mortality of at least 70% and less than 90%); G: water foxtail, herbicidal effect (evaluation scale 0-5) (water foxtail [29]): 5 (mortality of 90% or above (nearly complete death)); H: Italian ryegrass, herbicidal effect (evaluation scale 0-5) (Italian ryegrass [30]): 1 (mortality of at least 5% and less than 20%) |
| O=C1CCOCN1Cc1ccccc1NS(=O)(=O)C(F)(F)F [II-1] | 5 (mortality of 90% or above (nearly complete death)) | 5 (mortality of 90% or above (nearly complete death)) | 5 (mortality of 90% or above (nearly complete death)) | 1 (mortality of at least 5% and less than 20%) | 5 (mortality of 90% or above (nearly complete death)) | 4 (mortality of at least 70% and less than 90%) | 4 (mortality of at least 70% and less than 90%) | 4 (mortality of at least 70% and less than 90%) | 5 (mortality of 90% or above (nearly complete death)) | 5 (mortality of 90% or above (nearly complete death)) | 4 (mortality of at least 70% and less than 90%) | 0 (mortality of less than 5% (almost ineffective)) | 5 (mortality of 90% or above (nearly complete death)) | 0 (mortality of less than 5% (almost ineffective)) | 5 (mortality of 90% or above (nearly complete death)) | 4 (mortality of at least 70% and less than 90%) | 3 (mortality of at least 40% and less than 70%) | 5 (mortality of 90% or above (nearly complete death)) | 5 (mortality of 90% or above (nearly complete death)) | 5 (mortality of 90% or above (nearly complete death)) | F: wild oat, herbicidal effect (evaluation scale 0-5) (wild oat [19]): 0 (mortality of less than 5% (almost ineffective)); E: giant foxtail, herbicidal effect (evaluation scale 0-5) (giant foxtail [20]): 5 (mortality of 90% or above (nearly complete death)); N: common chickweed, herbicidal effect (evaluation scale 0-5) (common chickweed [21]): 5 (mortality of 90% or above (nearly complete death)); L: common lambsquater, herbicidal effect (evaluation scale 0-5) (common lambsquater [22]): 5 (mortality of 90% or above (nearly complete death)); J: common ragweed, herbicidal effect (evaluation scale 0-5) (common ragweed [23]): 5 (mortality of 90% or above (nearly complete death)); D: large crabgrass, herbicidal effect (evaluation scale 0-5) (large crabgrass [24]): 5 (mortality of 90% or above (nearly complete death)); A: barnyardgrass, herbicidal effect (evaluation scale 0-5) (barnyardgrass [25]): 5 (mortality of 90% or above (nearly complete death)); M: posumbu knotweed, herbicidal effect (evaluation scale 0-5) (posumbu knotweed [26]): 1 (mortality of at least 5% and less than 20%); I: velvetleaf, herbicidal effect (evaluation scale 0-5) (velvetleaf [27]): 5 (mortality of 90% or above (nearly complete death)); K: redroot pigweed, herbicidal effect (evaluation scale 0-5) (redroot pigweed [28]): 1 (mortality of at least 5% and less than 20%); G: water foxtail, herbicidal effect (evaluation scale 0-5) (water foxtail [29]): 5 (mortality of 90% or above (nearly complete death)); H: Italian ryegrass, herbicidal effect (evaluation scale 0-5) (Italian ryegrass [30]): 3 (mortality of at least 40% and less than 70%) |

From US20120029187A1, “HALOALKYLSULFONANILIDE DERIVATIVE” (Nissan Chemical Industries, Ltd., priority 2009, published 2012)
